{"source": "paper PMC8217813", "about": "“Bridging Computational Vaccinology and Vaccine Development Through Systematic Identification, Characterization, and Downselection of Conserved and Variable Circumsporozoite Protein CD4 T Cell Epitopes From Diverse Plasmodium falciparum Strains” (Frontiers in Immunology, 2021)", "key": {"HLA-DRB1*0401": {"target": "T1, HLA-DRB1*0401 (Homo sapiens, UniProt P01903+P01911, A100K/A169T/F76Y/I96L/K127E/L162R/M171V/N62H/P40V/Q125Y/R42H/S133A/S149N/S66Y/V115G/V209L/W38E)", "T1 construct": "purchased", "experiment": "In vitro class II HLA binding competition assay", "conditions": "competition with fluorescent-labeled reference peptide, class II HLA monomers, 24-hours, test peptide 100,000 nM to 100 nM, time-resolved fluorescence; read-out: IC50, DRB1*0401", "method": "(§1) EpiVax conducted in vitro quantification of peptide-HLA binding affinity utilizing a competition assay format per the methodology described in ([35]). Briefly, a fluorescent-labeled, high-binding reference peptide and titrating concentrations of test peptide were incubated in a 96-well plate format with limiting concentrations of class II HLA monomers in aqueous buffer for 24-hours. Post incubation, the mixtures were moved to a 96-well plate coated with anti-HLA-DR antibody to capture HLA-peptide complexes. Time-resolved fluorescence measurement of the bound labeled reference peptide complex present in each mixture were detected with a europium-linked probe via fluorescent spectrophotometry using a SpectraMax M5 system. HLA binding affinity of each test peptide was expressed as the percent inhibition of reference peptide binding. Percent inhibition values (across the test peptide titration range) were used to calculate the half maximal inhibitory concentration (IC50) of each test peptide. For these studies, test peptides were assessed using a range of final concentrations from 100,000 nM to 100 nM and all peptides were reconstituted in dimethyl sulfoxide (DMSO)."}, "HLA-DRB1*0801": {"target": "HLA-DRB1*0801 (Homo sapiens, UniProt P01903+P01911, A100R/A103L/A169T/D86S/F76Y/H45Y/I96F/K41T/L162R/M171V/P40S/Q125H/Q178H/Q39Y/Q99D/R218S/R42G/S66Y/V115G/W38E)", "experiment": "In vitro class II HLA binding competition assay", "conditions": "competition with fluorescent-labeled reference peptide, class II HLA monomers, 24-hours, test peptide 100,000 nM to 100 nM, time-resolved fluorescence", "method": "as §1"}, "HLA-DRB1*1101": {"target": "T2, HLA-DRB1*1101 (Homo sapiens, UniProt P01903+P01911, A100R/A169T/A87E/I96F/K41T/L162R/M171V/P40S/Q125H/Q178H/Q39Y/Q99D/R42S/S66Y/T262R/V115G/W38E)", "T2 construct": "purchased", "experiment": "In vitro class II HLA binding competition assay", "conditions": "competition with fluorescent-labeled reference peptide, class II HLA monomers, 24-hours, test peptide 100,000 nM to 100 nM, time-resolved fluorescence", "method": "as §1"}, "HLA-DRB1*1301": {"target": "HLA-DRB1*1301 (Homo sapiens, UniProt P01903+P01911, A100E/A169T/K41T/L162R/M171V/P40S/Q125H/Q178H/Q39Y/Q99D/R42S/S66N/T262R/W38E/Y61H)", "experiment": "In vitro class II HLA binding competition assay", "conditions": "competition with fluorescent-labeled reference peptide, class II HLA monomers, 24-hours, test peptide 100,000 nM to 100 nM, time-resolved fluorescence", "method": "as §1"}, "[1]": {"system": "CD4 T cells co-cultured with autologous DCs from PBMCs", "format": "cell-based, human", "conditions": "positive = Stimulation Index ≥1.5-fold above baseline, 5 µg/mL peptide"}}, "note": "pIC50: −log10 of the molar value. Peptide text beside a SMILES is read from it.", "data": [{"smiles": "CC(=O)N[C@@H](CCCCN)C(=O)N[C@@H](CCC(N)=O)C(=O)N[C@@H](CCC(=O)O)C(=O)N[C@@H](CC(N)=O)C(=O)N[C@@H](Cc1c[nH]c2ccccc12)C(=O)N[C@@H](Cc1ccc(O)cc1)C(=O)N[C@@H](CO)C(=O)N[C@@H](CC(C)C)C(=O)N[C@@H](CCCCN)C(=O)N[C@@H](CCCCN)C(=O)N[C@@H](CC(N)=O)C(=O)N[C@@H](CO)C(=O)N[C@@H](CCCNC(=N)N)C(=O)N[C@@H](CO)C(=O)N[C@@H](CC(C)C)C(=O)NCC(=O)N[C@@H](CCC(=O)O)C(=O)N[C@@H](CC(N)=O)C(=O)N[C@@H](CC(=O)O)C(N)=O", "note": "[Cluster C2] (Ac-KQENWYSLKKNSRSLGEND-NH2)", "values": [{"measurement": "pIC50", "setting": "HLA-DRB1*0401", "value": 4.97}, {"measurement": "pIC50", "setting": "HLA-DRB1*0801", "value": 6.97}, {"measurement": "pIC50", "setting": "HLA-DRB1*1101", "value": 6.40}, {"measurement": "pIC50", "setting": "HLA-DRB1*1301", "value": 7.43}, {"measurement": "Percentage of donors demonstrating IFN-γ responses, DR1", "setting": "[1]; DR1 donors N=5, ICCS after 14-day co-culture", "value": 20, "unit": "%"}, {"measurement": "Percentage of donors demonstrating IL-2 responses, DR1", "setting": "[1]; DR1 donors N=5, ICCS", "value": 0, "unit": "%"}, {"measurement": "Percentage of donors demonstrating IL-4 responses, DR1", "setting": "[1]; DR1 donors N=5, ICCS", "value": 40, "unit": "%"}, {"measurement": "Percentage of donors demonstrating IL-10 responses, DR1", "setting": "[1]; DR1 donors N=5, ICCS", "value": 20, "unit": "%"}, {"measurement": "Percentage of donors demonstrating TNF-α responses, DR1", "setting": "[1]; DR1 donors N=5, ICCS", "value": 0, "unit": "%"}, {"measurement": "Percentage of donors demonstrating IFN-γ responses, DR3", "setting": "[1]; DR3 donors N=6, ICCS after 14-day co-culture", "value": 33, "unit": "%"}, {"measurement": "Percentage of donors demonstrating IL-2 responses, DR3", "setting": "[1]; DR3 donors N=6, ICCS", "value": 0, "unit": "%"}, {"measurement": "Percentage of donors demonstrating IL-4 responses, DR3", "setting": "[1]; DR3 donors N=6, ICCS", "value": 0, "unit": "%"}, {"measurement": "Percentage of donors demonstrating IL-10 responses, DR3", "setting": "[1]; DR3 donors N=6, ICCS", "value": 50, "unit": "%"}, {"measurement": "Percentage of donors demonstrating TNF-α responses, DR3", "setting": "[1]; DR3 donors N=6, ICCS", "value": 0, "unit": "%"}, {"measurement": "Percentage of donors demonstrating IFN-γ responses, DR4", "setting": "[1]; DR4 donors N=10, ICCS after 14-day co-culture", "value": 0, "unit": "%"}, {"measurement": "Percentage of donors demonstrating IL-2 responses, DR4", "setting": "[1]; DR4 donors N=10, ICCS", "value": 0, "unit": "%"}, {"measurement": "Percentage of donors demonstrating IL-4 responses, DR4", "setting": "[1]; DR4 donors N=10, ICCS", "value": 10, "unit": "%"}, {"measurement": "Percentage of donors demonstrating IL-10 responses, DR4", "setting": "[1]; DR4 donors N=10, ICCS", "value": 10, "unit": "%"}, {"measurement": "Percentage of donors demonstrating TNF-α responses, DR4", "setting": "[1]; DR4 donors N=10, ICCS", "value": 0, "unit": "%"}, {"measurement": "Percentage of donors demonstrating IFN-γ responses, DR7", "setting": "[1]; DR7 donors N=4, ICCS after 14-day co-culture", "value": 0, "unit": "%"}, {"measurement": "Percentage of donors demonstrating IL-2 responses, DR7", "setting": "[1]; DR7 donors N=4, ICCS", "value": 0, "unit": "%"}, {"measurement": "Percentage of donors demonstrating IL-4 responses, DR7", "setting": "[1]; DR7 donors N=4, ICCS", "value": 25, "unit": "%"}, {"measurement": "Percentage of donors demonstrating IL-10 responses, DR7", "setting": "[1]; DR7 donors N=4, ICCS", "value": 50, "unit": "%"}, {"measurement": "Percentage of donors demonstrating TNF-α responses, DR7", "setting": "[1]; DR7 donors N=4, ICCS", "value": 0, "unit": "%"}, {"measurement": "Percentage of donors demonstrating IFN-γ responses, DR8", "setting": "[1]; DR8 donors N=4, ICCS after 14-day co-culture", "value": 0, "unit": "%"}, {"measurement": "Percentage of donors demonstrating IL-2 responses, DR8", "setting": "[1]; DR8 donors N=4, ICCS", "value": 0, "unit": "%"}, {"measurement": "Percentage of donors demonstrating IL-4 responses, DR8", "setting": "[1]; DR8 donors N=4, ICCS", "value": 0, "unit": "%"}, {"measurement": "Percentage of donors demonstrating IL-10 responses, DR8", "setting": "[1]; DR8 donors N=4, ICCS", "value": 25, "unit": "%"}, {"measurement": "Percentage of donors demonstrating TNF-α responses, DR8", "setting": "[1]; DR8 donors N=4, ICCS", "value": 0, "unit": "%"}, {"measurement": "Percentage of donors demonstrating IFN-γ responses, DR9", "setting": "[1]; DR9 donors N=4, ICCS after 14-day co-culture", "value": 25, "unit": "%"}, {"measurement": "Percentage of donors demonstrating IL-2 responses, DR9", "setting": "[1]; DR9 donors N=4, ICCS", "value": 0, "unit": "%"}, {"measurement": "Percentage of donors demonstrating IL-4 responses, DR9", "setting": "[1]; DR9 donors N=4, ICCS", "value": 25, "unit": "%"}, {"measurement": "Percentage of donors demonstrating IL-10 responses, DR9", "setting": "[1]; DR9 donors N=4, ICCS", "value": 25, "unit": "%"}, {"measurement": "Percentage of donors demonstrating TNF-α responses, DR9", "setting": "[1]; DR9 donors N=4, ICCS", "value": 0, "unit": "%"}, {"measurement": "Percentage of donors demonstrating IFN-γ responses, DR11", "setting": "[1]; DR11 donors N=4, ICCS after 14-day co-culture", "value": 0, "unit": "%"}, {"measurement": "Percentage of donors demonstrating IL-2 responses, DR11", "setting": "[1]; DR11 donors N=4, ICCS", "value": 0, "unit": "%"}, {"measurement": "Percentage of donors demonstrating IL-4 responses, DR11", "setting": "[1]; DR11 donors N=4, ICCS", "value": 0, "unit": "%"}, {"measurement": "Percentage of donors demonstrating IL-10 responses, DR11", "setting": "[1]; DR11 donors N=4, ICCS", "value": 0, "unit": "%"}, {"measurement": "Percentage of donors demonstrating TNF-α responses, DR11", "setting": "[1]; DR11 donors N=4, ICCS", "value": 0, "unit": "%"}, {"measurement": "Percentage of donors demonstrating IFN-γ responses, DR13", "setting": "[1]; DR13 donors N=7, ICCS after 14-day co-culture", "value": 0, "unit": "%"}, {"measurement": "Percentage of donors demonstrating IL-2 responses, DR13", "setting": "[1]; DR13 donors N=7, ICCS", "value": 0, "unit": "%"}, {"measurement": "Percentage of donors demonstrating IL-4 responses, DR13", "setting": "[1]; DR13 donors N=7, ICCS", "value": 0, "unit": "%"}, {"measurement": "Percentage of donors demonstrating IL-10 responses, DR13", "setting": "[1]; DR13 donors N=7, ICCS", "value": 29, "unit": "%"}, {"measurement": "Percentage of donors demonstrating TNF-α responses, DR13", "setting": "[1]; DR13 donors N=7, ICCS", "value": 0, "unit": "%"}, {"measurement": "Percentage of donors demonstrating IFN-γ responses, DR15", "setting": "[1]; DR15 donors N=7, ICCS after 14-day co-culture", "value": 29, "unit": "%"}, {"measurement": "Percentage of donors demonstrating IL-2 responses, DR15", "setting": "[1]; DR15 donors N=7, ICCS", "value": 0, "unit": "%"}, {"measurement": "Percentage of donors demonstrating IL-4 responses, DR15", "setting": "[1]; DR15 donors N=7, ICCS", "value": 0, "unit": "%"}, {"measurement": "Percentage of donors demonstrating IL-10 responses, DR15", "setting": "[1]; DR15 donors N=7, ICCS", "value": 14, "unit": "%"}, {"measurement": "Percentage of donors demonstrating TNF-α responses, DR15", "setting": "[1]; DR15 donors N=7, ICCS", "value": 0, "unit": "%"}]}]}
